The source of these data is PubChem BioAssay AID1259407 (Chemical Carcinogenesis Research Information System (CCRIS), 2018).

For this series, the system named is CCRIS mutagenicity, Ames/micronucleus/aberration tests. The series can be described thus: CCRIS mutagenicity studies.
Where [1] appears, read: Test System: AMES SALMONELLA TYPHIMURIUM, Strain/Indicator: TA98, Metabolic Activation: NONE, Method: PREINCUBATION
The mark [2] stands for this setting: Test System: AMES SALMONELLA TYPHIMURIUM, Strain/Indicator: TA100, Metabolic Activation: NONE, Method: PREINCUBATION
Setting [3] is: Test System: AMES SALMONELLA TYPHIMURIUM, Strain/Indicator: TA100, Metabolic Activation: NONE, Method: STANDARD PLATE.

Calls of active or inactive are those of the source. No rule for the calls is given here.

As for `Nc1cc(Cl)ccc1Cl`, the mutagenic call is, setting by setting: (Test System: AMES SALMONELLA TYPHIMURIUM, Strain/Indicator: TA97, Metabolic Activation: HAMSTER, LIVER, S-9, AROCLOR 1254 (10%), Method: PREINCUBATION) “inactive; negative”; (Test System: AMES SALMONELLA TYPHIMURIUM, Strain/Indicator: TA97, Metabolic Activation: HAMSTER, LIVER, S-9, AROCLOR 1254 (30%), Method: PREINCUBATION) “inactive; negative”; (Test System: AMES SALMONELLA TYPHIMURIUM, Strain/Indicator: TA97, Metabolic Activation: NONE, Method: PREINCUBATION) “inactive; negative”; (Test System: AMES SALMONELLA TYPHIMURIUM, Strain/Indicator: TA97, Metabolic Activation: RAT, LIVER, S-9, AROCLOR 1254 (10%), Method: PREINCUBATION) “inactive; negative”; (Test System: AMES SALMONELLA TYPHIMURIUM, Strain/Indicator: TA97, Metabolic Activation: RAT, LIVER, S-9, AROCLOR 1254 (30%), Method: PREINCUBATION) “inactive; negative”; (Test System: AMES SALMONELLA TYPHIMURIUM, Strain/Indicator: TA98, Metabolic Activation: HAMSTER, LIVER, S-9, AROCLOR 1254 (10%), Method: PREINCUBATION) “inactive; negative”. Further, the mutagenic call runs as follows: (Test System: AMES SALMONELLA TYPHIMURIUM, Strain/Indicator: TA98, Metabolic Activation: HAMSTER, LIVER, S-9, AROCLOR 1254 (30%), Method: PREINCUBATION) “inactive; negative”; under setting [1], “inactive; negative”; (Test System: AMES SALMONELLA TYPHIMURIUM, Strain/Indicator: TA98, Metabolic Activation: RAT, LIVER, S-9, AROCLOR 1254 (10%), Method: PREINCUBATION) “inactive; negative”; (Test System: AMES SALMONELLA TYPHIMURIUM, Strain/Indicator: TA98, Metabolic Activation: RAT, LIVER, S-9, AROCLOR 1254 (30%), Method: PREINCUBATION) “inactive; negative”; (Test System: AMES SALMONELLA TYPHIMURIUM, Strain/Indicator: TA100, Metabolic Activation: HAMSTER, LIVER, S-9, AROCLOR 1254 (10%), Method: PREINCUBATION) “inactive; negative”; (Test System: AMES SALMONELLA TYPHIMURIUM, Strain/Indicator: TA100, Metabolic Activation: HAMSTER, LIVER, S-9, AROCLOR 1254 (30%), Method: PREINCUBATION) “inactive; negative”. Also, the mutagenic call by setting is: under setting [2], “inactive; negative”; (Test System: AMES SALMONELLA TYPHIMURIUM, Strain/Indicator: TA100, Metabolic Activation: RAT, LIVER, S-9, AROCLOR 1254 (10%), Method: PREINCUBATION) “inactive; negative”; (Test System: AMES SALMONELLA TYPHIMURIUM, Strain/Indicator: TA100, Metabolic Activation: RAT, LIVER, S-9, AROCLOR 1254 (30%), Method: PREINCUBATION) “inactive; negative”; (Test System: AMES SALMONELLA TYPHIMURIUM, Strain/Indicator: TA1535, Metabolic Activation: HAMSTER, LIVER, S-9, AROCLOR 1254 (10%), Method: PREINCUBATION) “inactive; negative”; (Test System: AMES SALMONELLA TYPHIMURIUM, Strain/Indicator: TA1535, Metabolic Activation: HAMSTER, LIVER, S-9, AROCLOR 1254 (30%), Method: PREINCUBATION) “inactive; negative”; (Test System: AMES SALMONELLA TYPHIMURIUM, Strain/Indicator: TA1535, Metabolic Activation: NONE, Method: PREINCUBATION) “inactive; negative”. For the same compound, the mutagenic call (Test System: AMES SALMONELLA TYPHIMURIUM, Strain/Indicator: TA1535, Metabolic Activation: RAT, LIVER, S-9, AROCLOR 1254 (10%), Method: PREINCUBATION) was “inactive; negative”; the mutagenic call (Test System: AMES SALMONELLA TYPHIMURIUM, Strain/Indicator: TA1535, Metabolic Activation: RAT, LIVER, S-9, AROCLOR 1254 (30%), Method: PREINCUBATION) is “inactive; negative”; the mutagenic call (Test System: UDS RODENT HEPATOCYTES, Strain/Indicator: THY INCORP (NON-S-PHASE), Metabolic Activation: NONE, Method: AUTORADIOGRAPHY) was “inactive; negative”.
In the case of `N#C/C(=C/C=C/c1ccccc1[N+](=O)[O-])c1ccc(Br)cc1`, the mutagenic call (Test System: AMES SALMONELLA TYPHIMURIUM, Strain/Indicator: TA97A, Metabolic Activation: NONE, Method: STANDARD PLATE) was “active; positive” and the mutagenic call under setting [3] is “active; positive”.
With `C=C(C)C(=O)OCCOC(=O)C(=C)C`, the mutagenic call by setting is: (Test System: AMES SALMONELLA TYPHIMURIUM, Strain/Indicator: TA98, Metabolic Activation: HAMSTER, LIVER, S-9, AROCLOR 1254, Method: STANDARD PLATE) “inactive; negative”; (Test System: AMES SALMONELLA TYPHIMURIUM, Strain/Indicator: TA98, Metabolic Activation: NONE, Method: STANDARD PLATE) “inactive; negative”; (Test System: AMES SALMONELLA TYPHIMURIUM, Strain/Indicator: TA98, Metabolic Activation: RAT, LIVER, AROCLOR 1254, Method: STANDARD PLATE) “inactive; negative”; (Test System: AMES SALMONELLA TYPHIMURIUM, Strain/Indicator: TA98, Metabolic Activation: RAT, LIVER, S-9, AROCLOR 1254, Method: STANDARD PLATE) “inactive; negative”; (Test System: AMES SALMONELLA TYPHIMURIUM, Strain/Indicator: TA98, Metabolic Activation: RAT, LIVER, S-9, SODIUM PHENOBARBITAL, Method: STANDARD PLATE) “inactive; negative”; (Test System: AMES SALMONELLA TYPHIMURIUM, Strain/Indicator: TA100, Metabolic Activation: HAMSTER, LIVER, S-9, AROCLOR 1254, Method: STANDARD PLATE) “inactive; negative”. The mutagenic call was “inactive; negative” under setting [3]; “inactive; negative” (Test System: AMES SALMONELLA TYPHIMURIUM, Strain/Indicator: TA100, Metabolic Activation: RAT, LIVER, S-9, AROCLOR 1254, Method: STANDARD PLATE); “inactive; negative” (Test System: AMES SALMONELLA TYPHIMURIUM, Strain/Indicator: TA100, Metabolic Activation: RAT, LIVER, S-9, SODIUM PHENOBARBITAL, Method: STANDARD PLATE); “inactive; negative” (Test System: AMES SALMONELLA TYPHIMURIUM, Strain/Indicator: TA1535, Metabolic Activation: HAMSTER, LIVER, S-9, AROCLOR 1254, Method: STANDARD PLATE); “inactive; negative” (Test System: AMES SALMONELLA TYPHIMURIUM, Strain/Indicator: TA1535, Metabolic Activation: NONE, Method: STANDARD PLATE); “inactive; negative” (Test System: AMES SALMONELLA TYPHIMURIUM, Strain/Indicator: TA1535, Metabolic Activation: RAT, LIVER, S-9, AROCLOR 1254, Method: STANDARD PLATE). In addition, the mutagenic call was “inactive; negative” (Test System: AMES SALMONELLA TYPHIMURIUM, Strain/Indicator: TA1535, Metabolic Activation: RAT, LIVER, S-9, SODIUM PHENOBARBITAL, Method: STANDARD PLATE); “inactive; negative” (Test System: AMES SALMONELLA TYPHIMURIUM, Strain/Indicator: TA1537, Metabolic Activation: HAMSTER, LIVER, S-9, AROCLOR 1254, Method: STANDARD PLATE); “inactive; negative” (Test System: AMES SALMONELLA TYPHIMURIUM, Strain/Indicator: TA1537, Metabolic Activation: NONE, Method: STANDARD PLATE); “inactive; negative” (Test System: AMES SALMONELLA TYPHIMURIUM, Strain/Indicator: TA1537, Metabolic Activation: RAT, LIVER, S-9, AROCLOR 1254, Method: STANDARD PLATE); “inactive; negative” (Test System: AMES SALMONELLA TYPHIMURIUM, Strain/Indicator: TA1537, Metabolic Activation: RAT, LIVER, S-9, SODIUM PHENOBARBITAL, Method: STANDARD PLATE); “inactive; negative” (Test System: AMES SALMONELLA TYPHIMURIUM, Strain/Indicator: TA1538, Metabolic Activation: NONE, Method: STANDARD PLATE). The mutagenic call (Test System: AMES SALMONELLA TYPHIMURIUM, Strain/Indicator: TA1538, Metabolic Activation: RAT, LIVER, S-9, AROCLOR 1254, Method: STANDARD PLATE) was “inactive; negative”; the mutagenic call (Test System: AMES SALMONELLA TYPHIMURIUM, Strain/Indicator: TA1538, Metabolic Activation: RAT, LIVER, S-9, SODIUM PHENOBARBITAL, Method: STANDARD PLATE) was “inactive; negative”; the mutagenic call (Test System: Mouse lymphoma, Strain/Indicator: L5178Y (tk+/tk-), Metabolic Activation: Rat, Liver, S-9, Aroclor 1254, Method: Suspension/plate) was “active; positive”.
For `CC(C)Nc1nc(Cl)nc(NCC(=O)O)n1`, the mutagenic call (End Point: In vivo micronucleus, Test System: Bone marrow erythrocytes, Species: Mouse, Strain/Sex: Crl:CD-1, Route: Gavage) was “inactive; negative; proportion of pces per 1000 erythrocytes depressed”.
Regarding `O=[N+]([O-])c1cccc(S(=O)(=O)O)c1`, the mutagenic call was “inactive; negative” under setting [1]; “inactive; negative” (Test System: AMES SALMONELLA TYPHIMURIUM, Strain/Indicator: TA98, Metabolic Activation: RAT, LIVER, S-9, KANECHLOR 500, Method: PREINCUBATION); “inactive; negative” under setting [2]; “inactive; negative” (Test System: AMES SALMONELLA TYPHIMURIUM, Strain/Indicator: TA100, Metabolic Activation: RAT, LIVER, S-9, KANECHLOR 500, Method: PREINCUBATION).
